By IC50 is commonly meant the midpoint of a concentration-inhibition curve. A lower IC50 goes with inhibition by little substance.

In the Kinase Knowledgebase extract (Sharma et al. 2016) one finds IC50 data, which are given here for 22 compounds.

Where only a bound is given, the exact number is not on record here.

Assay [1] addresses PIK3CB (Human) (UniProt P42338). The assay can be described thus: Enzyme Assay.
In assay [2] the target is PIK3CD (Human) (UniProt O00329). As to the kind of experiment: Enzyme Assay.
Assay [3] shares this target. The assay can be described thus: Cell-Based Assay. The settings on record: raji.
Assay [4] has as its target PIK3CG (human) (UniProt P48736). As to the kind of experiment: Enzyme Assay.
The target in assay [5] is PIK3CA (human) (UniProt P42336). The assay can be described thus: Enzyme Assay.
Sequence of PIK3CA (human) (P42336 whole entry, looked up): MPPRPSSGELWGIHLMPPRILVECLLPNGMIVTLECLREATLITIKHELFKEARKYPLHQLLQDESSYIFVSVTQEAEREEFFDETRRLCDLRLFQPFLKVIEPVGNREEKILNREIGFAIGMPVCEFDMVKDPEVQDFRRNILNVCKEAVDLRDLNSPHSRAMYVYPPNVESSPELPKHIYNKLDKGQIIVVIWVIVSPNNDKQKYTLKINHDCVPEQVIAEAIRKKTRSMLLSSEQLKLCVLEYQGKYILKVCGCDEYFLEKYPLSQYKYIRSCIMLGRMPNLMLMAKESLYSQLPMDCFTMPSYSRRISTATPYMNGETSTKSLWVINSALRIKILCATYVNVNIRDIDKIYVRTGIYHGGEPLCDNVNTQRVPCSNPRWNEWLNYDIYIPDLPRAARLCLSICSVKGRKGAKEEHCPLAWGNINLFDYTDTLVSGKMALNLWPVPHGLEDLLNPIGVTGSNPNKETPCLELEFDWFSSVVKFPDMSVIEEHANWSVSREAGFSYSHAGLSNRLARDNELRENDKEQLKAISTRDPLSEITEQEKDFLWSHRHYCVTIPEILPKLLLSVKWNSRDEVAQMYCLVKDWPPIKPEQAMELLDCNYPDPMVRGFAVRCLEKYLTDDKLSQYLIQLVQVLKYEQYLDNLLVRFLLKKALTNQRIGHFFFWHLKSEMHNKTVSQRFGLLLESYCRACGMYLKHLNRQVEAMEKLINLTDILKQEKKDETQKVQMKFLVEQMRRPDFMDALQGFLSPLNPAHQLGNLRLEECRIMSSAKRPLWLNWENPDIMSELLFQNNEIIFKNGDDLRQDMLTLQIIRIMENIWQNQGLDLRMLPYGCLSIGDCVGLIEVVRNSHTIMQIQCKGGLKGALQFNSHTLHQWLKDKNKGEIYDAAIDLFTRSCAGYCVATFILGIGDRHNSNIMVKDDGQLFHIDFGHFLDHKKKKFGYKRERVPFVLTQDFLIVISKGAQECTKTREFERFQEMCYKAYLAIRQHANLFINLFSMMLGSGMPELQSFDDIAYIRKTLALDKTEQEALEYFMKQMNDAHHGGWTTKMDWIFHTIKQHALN

Sequence of PIK3CB (Human) (P42338 whole entry, looked up): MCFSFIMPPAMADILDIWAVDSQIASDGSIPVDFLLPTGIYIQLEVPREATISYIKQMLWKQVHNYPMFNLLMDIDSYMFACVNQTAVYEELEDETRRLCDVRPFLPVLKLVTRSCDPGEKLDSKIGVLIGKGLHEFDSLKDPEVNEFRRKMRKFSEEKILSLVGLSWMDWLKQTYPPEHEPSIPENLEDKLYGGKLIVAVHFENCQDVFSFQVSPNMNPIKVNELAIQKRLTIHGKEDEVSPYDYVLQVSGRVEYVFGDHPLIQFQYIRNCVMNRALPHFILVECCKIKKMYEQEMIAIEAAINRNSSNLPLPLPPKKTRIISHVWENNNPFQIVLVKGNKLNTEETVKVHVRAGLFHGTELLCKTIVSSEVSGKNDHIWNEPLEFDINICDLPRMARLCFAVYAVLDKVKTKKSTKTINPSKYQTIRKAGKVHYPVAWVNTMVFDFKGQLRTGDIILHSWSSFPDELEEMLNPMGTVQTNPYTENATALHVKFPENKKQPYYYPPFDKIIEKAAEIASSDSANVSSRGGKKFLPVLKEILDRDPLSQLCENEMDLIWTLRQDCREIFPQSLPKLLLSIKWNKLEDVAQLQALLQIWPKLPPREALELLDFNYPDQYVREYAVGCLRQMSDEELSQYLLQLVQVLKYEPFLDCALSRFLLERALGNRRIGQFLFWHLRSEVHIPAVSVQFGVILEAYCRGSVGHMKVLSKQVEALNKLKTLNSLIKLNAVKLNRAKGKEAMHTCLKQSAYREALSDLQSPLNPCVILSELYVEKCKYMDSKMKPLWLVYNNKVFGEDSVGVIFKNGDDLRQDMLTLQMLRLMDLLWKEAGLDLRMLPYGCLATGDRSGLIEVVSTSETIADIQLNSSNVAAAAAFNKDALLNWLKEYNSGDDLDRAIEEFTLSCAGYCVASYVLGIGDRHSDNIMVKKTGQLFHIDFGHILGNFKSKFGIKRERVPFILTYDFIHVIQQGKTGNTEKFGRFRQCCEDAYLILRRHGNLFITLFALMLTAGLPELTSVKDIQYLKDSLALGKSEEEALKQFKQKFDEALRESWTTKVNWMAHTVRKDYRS
Sequence of PIK3CG (human) (P48736 whole entry, looked up): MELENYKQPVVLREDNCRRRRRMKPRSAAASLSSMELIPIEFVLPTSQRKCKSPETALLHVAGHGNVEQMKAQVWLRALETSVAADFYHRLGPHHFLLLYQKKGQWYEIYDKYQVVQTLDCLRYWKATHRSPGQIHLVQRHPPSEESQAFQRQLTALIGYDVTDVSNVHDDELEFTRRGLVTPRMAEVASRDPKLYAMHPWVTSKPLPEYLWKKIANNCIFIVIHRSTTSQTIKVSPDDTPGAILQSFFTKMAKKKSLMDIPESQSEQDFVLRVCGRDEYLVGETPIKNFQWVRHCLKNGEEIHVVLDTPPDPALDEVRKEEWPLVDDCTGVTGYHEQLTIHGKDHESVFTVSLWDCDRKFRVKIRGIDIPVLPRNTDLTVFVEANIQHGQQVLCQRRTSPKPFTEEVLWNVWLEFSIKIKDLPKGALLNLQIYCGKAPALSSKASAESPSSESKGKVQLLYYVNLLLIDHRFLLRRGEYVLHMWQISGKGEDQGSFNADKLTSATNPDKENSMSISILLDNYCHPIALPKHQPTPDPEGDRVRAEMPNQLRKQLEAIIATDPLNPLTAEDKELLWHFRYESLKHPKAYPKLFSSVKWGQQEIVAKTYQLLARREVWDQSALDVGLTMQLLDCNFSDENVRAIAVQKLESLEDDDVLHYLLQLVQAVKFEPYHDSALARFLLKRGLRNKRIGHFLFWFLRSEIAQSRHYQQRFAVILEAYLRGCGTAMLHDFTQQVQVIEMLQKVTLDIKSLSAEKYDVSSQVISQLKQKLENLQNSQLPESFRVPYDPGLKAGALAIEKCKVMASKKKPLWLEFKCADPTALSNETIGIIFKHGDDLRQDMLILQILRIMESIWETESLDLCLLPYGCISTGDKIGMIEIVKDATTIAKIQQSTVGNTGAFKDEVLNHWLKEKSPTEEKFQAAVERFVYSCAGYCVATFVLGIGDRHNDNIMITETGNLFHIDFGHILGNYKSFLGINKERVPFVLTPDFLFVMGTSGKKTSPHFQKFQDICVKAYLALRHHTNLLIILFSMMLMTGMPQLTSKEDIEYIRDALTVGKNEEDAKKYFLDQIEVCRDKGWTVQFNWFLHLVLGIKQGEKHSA
Sequence of PIK3CD (Human) (O00329 whole entry, looked up): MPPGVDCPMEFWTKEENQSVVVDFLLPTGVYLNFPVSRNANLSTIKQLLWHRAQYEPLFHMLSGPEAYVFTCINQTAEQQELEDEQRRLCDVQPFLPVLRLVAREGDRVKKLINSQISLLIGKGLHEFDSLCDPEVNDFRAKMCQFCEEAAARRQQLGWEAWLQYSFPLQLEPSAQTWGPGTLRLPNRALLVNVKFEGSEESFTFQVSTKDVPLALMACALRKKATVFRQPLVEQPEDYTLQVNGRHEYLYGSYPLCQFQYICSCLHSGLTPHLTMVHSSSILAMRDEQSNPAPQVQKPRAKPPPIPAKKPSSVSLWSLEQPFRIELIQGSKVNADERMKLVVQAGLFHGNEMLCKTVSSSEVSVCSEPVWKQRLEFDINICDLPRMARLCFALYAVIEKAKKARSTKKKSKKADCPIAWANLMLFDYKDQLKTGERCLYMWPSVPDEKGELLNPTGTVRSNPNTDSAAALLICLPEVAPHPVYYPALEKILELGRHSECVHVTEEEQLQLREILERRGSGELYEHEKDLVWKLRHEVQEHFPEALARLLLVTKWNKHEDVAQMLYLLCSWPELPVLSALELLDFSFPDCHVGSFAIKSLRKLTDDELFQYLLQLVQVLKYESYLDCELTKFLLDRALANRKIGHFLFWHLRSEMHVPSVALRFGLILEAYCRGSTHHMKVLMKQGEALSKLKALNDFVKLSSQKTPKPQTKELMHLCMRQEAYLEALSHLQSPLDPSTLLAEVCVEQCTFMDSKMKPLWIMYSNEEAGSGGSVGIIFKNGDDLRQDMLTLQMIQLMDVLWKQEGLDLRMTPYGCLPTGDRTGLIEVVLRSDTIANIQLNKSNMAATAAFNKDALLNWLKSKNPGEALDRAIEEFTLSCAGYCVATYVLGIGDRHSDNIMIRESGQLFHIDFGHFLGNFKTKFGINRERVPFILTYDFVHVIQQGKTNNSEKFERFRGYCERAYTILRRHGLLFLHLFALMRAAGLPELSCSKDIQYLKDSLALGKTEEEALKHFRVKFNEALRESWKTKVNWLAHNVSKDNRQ

For the compound `C[C@H](NC(=O)c1c(N)nn2cccnc12)c1cc2cccc(Cl)c2c(=O)n1CCNCCO`, the IC50 in assay [1] was less than 0.1 µM; in assay [2], 0.1 to 1 µM.
For the compound `C[C@H](NC(=O)c1nc(-c2cccc(NS(=O)(=O)N(C)C)c2)cnc1N)c1cc2cccc(Cl)c2c(=O)n1-c1ccccc1`, the IC50 in assay [3] was less than 0.1 µM; in assay [1], 0.1 to 1 µM; in assay [4] it was less than 0.1 µM; in assay [2], 0.1 to 1 µM.
As to `C[C@H](NC(=O)c1nc(-c2cccc(NS(C)(=O)=O)c2)cnc1N)c1cc2cccc(N3CCOCC3)c2c(=O)n1-c1ccccc1`, the IC50 in assay [5], in assay [1] and in assay [2] was not below 10 µM each time.
As to `Cc1ccn2nc(N)c(C(=O)N[C@@H](C)c3cc4cccc(Cl)c4c(=O)n3-c3ccccc3)c2n1`, the IC50 in assay [3] is less than 0.1 µM; in assay [1], less than 0.1 µM; in assay [4], 0.1 to 1 µM; in assay [2], 0.1 to 1 µM.
`C[C@H](NC(=O)c1c(N)nn2cccnc12)c1cc2cccc(-c3cccnc3)c2c(=O)n1-c1ccccc1`: the IC50 is less than 0.1 µM in assay [3], not below 10 µM in assay [1], 0.1 to 1 µM in assay [4] and 0.1 to 1 µM in assay [2].
Take `C[C@H](NC(=O)c1c(N)nn2cccnc12)c1c(Br)c2cccc(Cl)c2c(=O)n1-c1ccccc1`: the IC50 in assay [3] was less than 0.1 µM; in assay [4] it was less than 0.1 µM; in assay [2] it was 0.1 to 1 µM.
On to `C[C@H](NC(=O)c1nccnc1N)c1nc2cccc(Cl)c2c(=O)n1-c1ccccc1`, for which the figures for the IC50 in assay [5], in assay [4] and in assay [2] were not below 10 µM, 0.1 to 1 µM and less than 0.1 µM, respectively.
As for `C[C@H](NC(=O)c1c(N)nn2cccnc12)c1cc2scc(-c3cnn(C)c3)c2c(=O)n1-c1ccccc1`, the IC50 in assay [5], in assay [1] and in assay [2] was not below 10 µM in each case.
As to `C[C@H](NC(=O)c1nc(-c2csc(S(C)(=O)=O)n2)cnc1N)c1cc2cccc(Cl)c2c(=O)n1-c1ccccc1`, the IC50 in assay [5] and in assay [2] was not below 10 µM throughout.
As for `C[C@H](NC(=O)c1c(N)nn2cccnc12)c1cc2cccc(N3CCOCC3)c2c(=O)n1-c1ccccc1`, the IC50 in assay [5], in assay [1] and in assay [2] was not below 10 µM throughout.
Regarding `COc1cc(-c2cccc3cc(C(C)NC(=O)c4c(N)nn5cccnc45)c(-c4ccccc4)nc23)ccn1` (configuration not stated), the IC50 is 0.1 to 1 µM in assay [3], not below 10 µM in assay [5], not below 10 µM in assay [1] and not below 10 µM in assay [2].
As for `CC[C@H](NC(=O)c1c(N)nn2cccnc12)c1cc2cccc(Cl)c2c(=O)n1-c1ccccc1`, the IC50 is less than 0.1 µM in assay [3], less than 0.1 µM in assay [1], 0.1 to 1 µM in assay [4] and less than 0.1 µM in assay [2].
Consider `C[C@H](NC(=O)c1cncc2cccnc12)c1cc2cccc(Cl)c2c(=O)n1-c1ccccc1`, for which the IC50 is less than 0.1 µM in assay [3], not below 10 µM in assay [5] and 0.1 to 1 µM in assay [2].
In the case of `C[C@H](NC(=O)c1c(N)nn2cccnc12)c1nc2cccc(Cl)c2c(=O)n1-c1ccccc1`, the IC50 in assay [3] is less than 0.1 µM; in assay [1], 0.1 to 1 µM; in assay [4], less than 0.1 µM; in assay [2] it was less than 0.1 µM.
Consider `C[C@H](NC(=O)c1nc(-c2cscn2)cnc1N)c1cc2cccc(Cl)c2c(=O)n1-c1ccccc1`, for which the IC50 in assay [3] is 0.1 to 1 µM; in assay [4], 0.1 to 1 µM; in assay [2], not below 10 µM.
As for `C[C@H](NC(=O)c1c(N)nn2cccnc12)c1cc2cccc(-c3cncc(NS(C)(=O)=O)c3)c2c(=O)n1-c1ccccc1`, the IC50 was less than 0.1 µM in assay [3], not below 10 µM in assay [1], 0.1 to 1 µM in assay [4] and 0.1 to 1 µM in assay [2].
With `COc1cc(-c2cccc3cc([C@H](C)NC(=O)c4c(N)nn5cccnc45)n(C4CCCCC4)c(=O)c23)ccn1`, the IC50 in assay [5], in assay [1] and in assay [2] was not below 10 µM each time.
For `C[C@H](NC(=O)c1nccnc1N)c1cc2cccc(Cl)c2c(=O)n1-c1ccccc1`, the IC50 in assay [3] was less than 0.1 µM; in assay [1], 0.1 to 1 µM; in assay [4], 0.1 to 1 µM; in assay [2], less than 0.1 µM.
Turning to `CNc1cccc2cc([C@H](C)NC(=O)c3c(N)nn4cccnc34)n(-c3ccccc3)c(=O)c12`, the IC50 in assay [3] was 0.1 to 1 µM; in assay [1], not below 10 µM; in assay [2] it was not below 10 µM.
Turning to `C[C@H](NC(=O)c1nc(-c2cnn(C)c2)cnc1N)c1cc2cccc(Cl)c2c(=O)n1-c1ccccc1`, the figures for the IC50 in assay [3] and in assay [2] were 0.1 to 1 µM and not below 10 µM, respectively.
As for `Cc1c([C@H](C)NC(=O)c2c(N)nn3cccnc23)n(-c2ccccc2)c(=O)c2c(F)cccc12`, the IC50 in assay [3] is less than 0.1 µM; in assay [1] it was 0.1 to 1 µM; in assay [4], less than 0.1 µM; in assay [2], 0.1 to 1 µM.
Regarding `C[C@H](NC(=O)c1c(N)nn2cccnc12)c1cc2cccc(N(C)C)c2c(=O)n1-c1ccccc1`, the IC50 in assay [5], in assay [1] and in assay [2] was not below 10 µM in each case.
